According to ChEMBL document CHEMBL2073831, “Biliary transport of irinotecan and metabolites in normal and P-glycoprotein-deficient mice” (Cancer Chemother Pharmacol, 2002):

Target: P-glycoprotein 1 and 3 (MDR1a/MDR1b) (Mus musculus, UniProt P21447+P06795)
Test: TP_TRANSPORTER: decrease in biliary excretion in mdr1a/1b(-/-) mouse
Format: functional, organism-based, Bile
Conditions: in vivo

CCc1c2c(nc3ccc(OC(=O)N4CCC(N5CCCCC5)CC4)cc13)-c1cc3c(c(=O)n1C2)COC(=O)[C@]3(O)CC [IRINOTECAN]
Activity: substrate [+]
